Reference: patent publication US20160303095A1, “METHODS OF TREATING HEPATITIS B VIRUS” (Gilead Sciences, Inc., priority 2015, published 2016)

What was measured:
KDM2B = molecular target: T1, KDM2B (Homo sapiens, UniProt Q8NHM5); assay: Biochemical KDM inhibition assay (LANCE), KDM2B; conditions: read-out: Biochemical IC50 KDM 2B
T1 construct: host or cells: Sf9 cells
T1 sequence (Q8NHM5 1-1336): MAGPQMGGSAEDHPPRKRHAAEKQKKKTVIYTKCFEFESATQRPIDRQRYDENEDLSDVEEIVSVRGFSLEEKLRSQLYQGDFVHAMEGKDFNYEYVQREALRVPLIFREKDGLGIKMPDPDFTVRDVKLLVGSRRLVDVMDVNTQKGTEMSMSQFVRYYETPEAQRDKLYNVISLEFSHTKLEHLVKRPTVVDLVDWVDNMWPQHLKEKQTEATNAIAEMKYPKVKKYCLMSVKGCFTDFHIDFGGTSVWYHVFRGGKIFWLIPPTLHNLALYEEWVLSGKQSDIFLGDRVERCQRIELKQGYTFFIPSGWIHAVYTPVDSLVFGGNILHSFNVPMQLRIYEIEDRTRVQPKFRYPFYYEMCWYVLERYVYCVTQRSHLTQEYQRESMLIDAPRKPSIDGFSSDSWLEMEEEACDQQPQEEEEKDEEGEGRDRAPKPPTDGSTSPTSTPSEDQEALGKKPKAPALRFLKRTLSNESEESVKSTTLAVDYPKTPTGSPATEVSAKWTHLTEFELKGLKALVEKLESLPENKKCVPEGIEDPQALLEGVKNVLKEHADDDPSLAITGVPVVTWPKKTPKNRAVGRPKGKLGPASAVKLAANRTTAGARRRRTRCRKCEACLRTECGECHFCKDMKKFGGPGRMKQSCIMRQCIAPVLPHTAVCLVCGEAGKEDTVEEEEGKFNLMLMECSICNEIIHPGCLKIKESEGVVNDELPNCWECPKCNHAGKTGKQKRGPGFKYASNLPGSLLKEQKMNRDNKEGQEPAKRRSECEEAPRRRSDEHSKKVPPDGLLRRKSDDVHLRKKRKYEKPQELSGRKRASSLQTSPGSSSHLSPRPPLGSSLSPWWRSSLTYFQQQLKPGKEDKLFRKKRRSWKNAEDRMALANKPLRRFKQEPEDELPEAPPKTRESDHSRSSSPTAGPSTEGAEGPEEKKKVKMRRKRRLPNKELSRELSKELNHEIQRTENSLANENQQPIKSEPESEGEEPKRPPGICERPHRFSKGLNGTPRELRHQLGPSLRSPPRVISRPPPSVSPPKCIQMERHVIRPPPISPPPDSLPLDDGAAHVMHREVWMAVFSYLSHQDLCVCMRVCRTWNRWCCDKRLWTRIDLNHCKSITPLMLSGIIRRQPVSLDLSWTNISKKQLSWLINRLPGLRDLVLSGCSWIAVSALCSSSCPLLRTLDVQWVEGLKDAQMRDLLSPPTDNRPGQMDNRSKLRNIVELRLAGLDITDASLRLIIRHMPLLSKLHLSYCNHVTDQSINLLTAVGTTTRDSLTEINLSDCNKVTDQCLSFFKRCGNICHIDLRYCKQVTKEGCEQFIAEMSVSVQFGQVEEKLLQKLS
Description: (§1) Representative compounds were characterized for their inhibition of KDM5 using biotinylated histone substrates. Inhibition was measured in vitro (CEREP Poitier, Le Bois l'Evêque, France) following experimental conditions described in Table 2. Briefly, the test compound, reference compound or water (control) was mixed with about 2-20 ng of recombinant, Human enzymes expressed in Sf9 cells in a buffer containing 45 mM Hepes/Tris (pH 7), 5 μM FAS, 100 μM ascorbic acid, 10 μM 2-oxoglutarate, 0.01% Tween 20 and 0.01% BSA. Thereafter, the reaction was initiated by adding the biotin-labeled substrate, and the mixture was incubated for 10-30 min at room temperature. For basal control measurements, the enzyme was omitted from the reaction mixture. Following incubation the reaction was stopped by adding 1 mM EDTA. After 5 min, the anti-methyl histone antibody labeled with europium chelate and the Ulight streptavidine (Perkin Elmer Waltham, Mass.) were added. After 60 min more, the fluorescence transfer was measured at λex=320 nm and λem=620 and λem=665 nm using a microplate reader (Envision, Perkin Elmer) (LANCE). The enzyme activity was determined by dividing the signal measured at λem=665 nm by that measured at 620 nm (ratio).

KDM6B = molecular target: T2, KDM6B (Homo sapiens, UniProt O15054); assay: Biochemical KDM inhibition assay (LANCE), KDM6B; conditions: read-out: Biochemical IC50 KDM 6B
T2 construct: host or cells: Sf9 cells
T2 sequence (O15054 whole entry): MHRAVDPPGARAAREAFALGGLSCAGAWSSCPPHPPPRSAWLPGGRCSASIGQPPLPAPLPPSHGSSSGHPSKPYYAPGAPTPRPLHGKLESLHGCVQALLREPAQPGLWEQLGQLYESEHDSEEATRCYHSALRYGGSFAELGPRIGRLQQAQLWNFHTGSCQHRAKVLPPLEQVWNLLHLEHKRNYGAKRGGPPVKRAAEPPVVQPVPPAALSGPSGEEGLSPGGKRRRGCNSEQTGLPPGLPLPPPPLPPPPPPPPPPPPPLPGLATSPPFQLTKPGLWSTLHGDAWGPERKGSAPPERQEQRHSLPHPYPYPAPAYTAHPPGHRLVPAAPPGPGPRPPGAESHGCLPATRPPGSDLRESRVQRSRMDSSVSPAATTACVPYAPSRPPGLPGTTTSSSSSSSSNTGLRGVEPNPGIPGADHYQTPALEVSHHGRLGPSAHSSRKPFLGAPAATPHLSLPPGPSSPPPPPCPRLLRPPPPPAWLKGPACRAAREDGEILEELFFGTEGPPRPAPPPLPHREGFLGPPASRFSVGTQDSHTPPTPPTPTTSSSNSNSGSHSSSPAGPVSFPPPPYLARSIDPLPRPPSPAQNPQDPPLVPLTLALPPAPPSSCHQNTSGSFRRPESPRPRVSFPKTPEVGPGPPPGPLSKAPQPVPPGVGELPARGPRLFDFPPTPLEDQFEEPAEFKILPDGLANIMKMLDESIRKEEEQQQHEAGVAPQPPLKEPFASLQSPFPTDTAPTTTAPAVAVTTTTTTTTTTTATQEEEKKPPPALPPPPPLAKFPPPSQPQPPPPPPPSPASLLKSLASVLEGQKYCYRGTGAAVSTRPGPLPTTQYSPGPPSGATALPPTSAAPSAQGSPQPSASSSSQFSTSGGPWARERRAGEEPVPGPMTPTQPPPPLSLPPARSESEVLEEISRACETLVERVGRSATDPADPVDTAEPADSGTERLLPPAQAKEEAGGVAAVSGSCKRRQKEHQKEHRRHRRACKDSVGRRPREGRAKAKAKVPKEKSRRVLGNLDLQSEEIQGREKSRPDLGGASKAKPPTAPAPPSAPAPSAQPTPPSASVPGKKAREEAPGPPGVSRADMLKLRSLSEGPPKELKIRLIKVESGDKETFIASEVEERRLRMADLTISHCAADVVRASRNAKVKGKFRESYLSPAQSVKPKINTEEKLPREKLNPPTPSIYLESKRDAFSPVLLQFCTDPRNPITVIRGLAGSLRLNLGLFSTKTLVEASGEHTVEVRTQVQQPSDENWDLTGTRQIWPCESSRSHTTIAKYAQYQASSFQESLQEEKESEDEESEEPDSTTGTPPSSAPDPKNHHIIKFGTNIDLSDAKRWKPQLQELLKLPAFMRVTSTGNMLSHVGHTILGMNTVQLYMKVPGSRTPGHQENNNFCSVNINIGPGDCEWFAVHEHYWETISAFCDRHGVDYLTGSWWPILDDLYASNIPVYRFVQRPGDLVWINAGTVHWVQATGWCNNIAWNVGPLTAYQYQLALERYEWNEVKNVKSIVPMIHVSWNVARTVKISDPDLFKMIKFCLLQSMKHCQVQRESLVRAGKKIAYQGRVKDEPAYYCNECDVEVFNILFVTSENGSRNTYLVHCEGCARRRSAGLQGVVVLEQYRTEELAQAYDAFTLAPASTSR
Description: as §1

KDM2A = molecular target: T3, KDM2A (Homo sapiens, UniProt Q9Y2K7); assay: Biochemical KDM inhibition assay (LANCE), KDM2A; conditions: read-out: Biochemical IC50 KDM 2A
T3 construct: host or cells: Sf9 cells
T3 sequence (Q9Y2K7 1-1162): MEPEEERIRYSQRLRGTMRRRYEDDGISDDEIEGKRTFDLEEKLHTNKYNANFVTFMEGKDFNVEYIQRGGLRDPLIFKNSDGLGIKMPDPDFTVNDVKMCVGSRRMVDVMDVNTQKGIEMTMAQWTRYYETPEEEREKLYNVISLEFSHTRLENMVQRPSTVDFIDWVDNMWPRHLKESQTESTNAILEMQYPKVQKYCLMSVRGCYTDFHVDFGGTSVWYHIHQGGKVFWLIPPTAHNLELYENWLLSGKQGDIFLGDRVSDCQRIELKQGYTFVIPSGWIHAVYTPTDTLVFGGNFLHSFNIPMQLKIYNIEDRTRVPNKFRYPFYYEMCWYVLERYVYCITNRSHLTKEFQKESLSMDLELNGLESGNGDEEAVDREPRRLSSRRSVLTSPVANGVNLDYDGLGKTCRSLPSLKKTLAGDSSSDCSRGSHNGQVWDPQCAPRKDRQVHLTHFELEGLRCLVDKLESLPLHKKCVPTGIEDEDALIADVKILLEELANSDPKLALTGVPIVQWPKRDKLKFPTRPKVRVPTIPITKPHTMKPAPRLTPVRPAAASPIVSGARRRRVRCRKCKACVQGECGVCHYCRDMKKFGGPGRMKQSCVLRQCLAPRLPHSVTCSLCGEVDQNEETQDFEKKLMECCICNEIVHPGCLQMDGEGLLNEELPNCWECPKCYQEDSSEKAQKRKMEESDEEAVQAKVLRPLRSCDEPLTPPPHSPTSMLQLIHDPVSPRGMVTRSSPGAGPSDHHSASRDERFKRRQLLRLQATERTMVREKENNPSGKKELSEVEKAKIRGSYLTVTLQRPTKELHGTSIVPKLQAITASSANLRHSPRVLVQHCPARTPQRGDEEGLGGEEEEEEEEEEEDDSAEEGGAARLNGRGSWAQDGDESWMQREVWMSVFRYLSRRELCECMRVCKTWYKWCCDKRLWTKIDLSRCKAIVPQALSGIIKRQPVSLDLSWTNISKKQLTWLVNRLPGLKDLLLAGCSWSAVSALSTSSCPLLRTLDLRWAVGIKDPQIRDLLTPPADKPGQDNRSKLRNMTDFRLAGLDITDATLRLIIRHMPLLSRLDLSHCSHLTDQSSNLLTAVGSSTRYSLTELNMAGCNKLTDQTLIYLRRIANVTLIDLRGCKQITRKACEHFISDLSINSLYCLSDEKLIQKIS
Description: as §1

Structure (SMILES) | IC50 (KDM2B) | IC50 (KDM6B) | IC50 (KDM2A)
Nc1c(C(=O)O)ccnc1C(=O)O [Example 7, reference compound] | 160 nM | 7800 nM | 360 nM
CCN(CCN(C)C)C(=O)CNCc1cc(C(=O)O)ccn1 [Example 9] | 1600 nM | 4100 nM | 650 nM
Cc1cc(Cl)ccc1COc1ccnn1-c1cc(C(=O)O)ccn1 [Example 11] | 660 nM | 280 nM | 450 nM
O=C(O)c1ccncc1Nc1nn(CCN2CCC(F)(F)CC2)c2ccc(F)cc12 [Example 13] | 2400 nM | 400 nM | 510 nM
CCN(CC)CCCCNCc1cc(C(=O)O)ccn1 [Example 18] | 12000 nM | 27000 nM | 2000 nM
